For data set [1], the target named is Glucagon-like peptide 1 receptor (Homo sapiens, UniProt P43220). Briefly: Agonist activity at human GLP1R expressed in HEK293 cells after 5 hrs by luciferase reporter gene assay. The data set is classed as cell-based. On the technique in general: In a reporter assay the amount or activity of a reporter protein is the signal.
Data set [2] in a line: Protein binding in rat plasma at 200 to 1000 ng/ml incubated for 15 mins by LC/MS/MS based ultracentrifugation method. The data set is classed as ADME, cell-free. As to conditions: read-out: PPB (converted).
Data set [3] deals with T1, Glucagon-like peptide 2 receptor (Homo sapiens, UniProt O95838).
T1 sequence (O95838 whole entry): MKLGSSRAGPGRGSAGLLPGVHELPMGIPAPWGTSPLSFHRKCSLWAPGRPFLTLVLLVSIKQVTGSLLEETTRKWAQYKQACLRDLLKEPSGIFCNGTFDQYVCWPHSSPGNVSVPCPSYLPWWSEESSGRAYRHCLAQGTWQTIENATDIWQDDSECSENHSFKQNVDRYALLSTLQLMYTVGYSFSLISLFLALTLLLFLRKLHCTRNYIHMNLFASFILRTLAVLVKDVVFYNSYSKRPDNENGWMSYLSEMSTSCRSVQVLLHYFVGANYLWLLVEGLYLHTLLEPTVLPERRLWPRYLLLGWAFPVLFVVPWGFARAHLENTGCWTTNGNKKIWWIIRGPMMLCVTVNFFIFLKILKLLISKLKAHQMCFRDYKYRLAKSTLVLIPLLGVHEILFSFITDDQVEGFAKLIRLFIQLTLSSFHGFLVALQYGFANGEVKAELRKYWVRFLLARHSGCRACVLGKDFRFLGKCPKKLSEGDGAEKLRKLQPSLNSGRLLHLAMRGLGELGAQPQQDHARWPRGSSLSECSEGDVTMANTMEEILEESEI
The experiment in a line: Agonist activity at human GLP2R expressed in HEK293 cells after 5 hrs by luciferase reporter gene assay. The format is cell-based.

The nature of data set [4]: Systemic clearance in Sprague-Dawley rat at 0.2 mg/kg, iv through cassette dosing measured up to 300 mins by LC/MS/MS analysis. The data set is classed as ADME, organism-based. The note with it: in vivo.
In the next data set the test system is HEK293. The experiment in a line: Selectivity ratio of EC50 for human GLP1R expressed in HEK293 cells to EC50 for human GLP2R expressed in HEK293. The data set is classed as cell-based.
For data set [5], the target named is Glucagon receptor (Homo sapiens) (UniProt P47871). The experiment in a line: Agonist activity at human GCGR expressed in HEK293 cells up to 1000 nM after 5 hrs by luciferase reporter gene assay. The format is cell-based.

From ChEMBL document CHEMBL3822442, “Synthesis and Pharmacological Characterization of Novel Glucagon-like Peptide-2 (GLP-2) Analogues with Low Systemic Clearance” (J Med Chem, 2016) come the findings set out here.

By EC50 is commonly meant the concentration needed to bring the measured effect to its halfway point. Read a high EC50 as a need for much substance. In general, clearance refers to the volume of plasma or blood freed of the substance per unit of time.

Molecules are shown by their SMILES. Calls of active or inactive are those of the source. The calls are words filed in the database; no cut-off is given here. Non-standard residues stand in square brackets, D forms with d. Residues, ends and D or L forms follow the SMILES beside them. ξ: configuration not given here. ξNle = CCCCC(N)C(=O)O

Glucagon-like peptide 1 receptor, sequence (P43220 whole entry): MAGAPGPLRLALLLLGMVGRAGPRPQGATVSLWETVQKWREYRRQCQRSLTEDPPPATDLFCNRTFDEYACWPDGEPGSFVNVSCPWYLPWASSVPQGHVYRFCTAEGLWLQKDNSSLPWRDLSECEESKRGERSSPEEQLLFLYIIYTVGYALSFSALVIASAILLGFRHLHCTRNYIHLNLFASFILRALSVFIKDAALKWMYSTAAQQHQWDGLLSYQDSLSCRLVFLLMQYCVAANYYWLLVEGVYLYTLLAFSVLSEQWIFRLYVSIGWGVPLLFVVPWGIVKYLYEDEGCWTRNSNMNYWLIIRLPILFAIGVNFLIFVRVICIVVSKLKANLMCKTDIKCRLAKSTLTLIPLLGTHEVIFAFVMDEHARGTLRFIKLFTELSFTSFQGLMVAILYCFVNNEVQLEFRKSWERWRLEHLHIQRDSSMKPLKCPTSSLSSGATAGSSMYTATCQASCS
Glucagon receptor (Homo sapiens), sequence (P47871 whole entry): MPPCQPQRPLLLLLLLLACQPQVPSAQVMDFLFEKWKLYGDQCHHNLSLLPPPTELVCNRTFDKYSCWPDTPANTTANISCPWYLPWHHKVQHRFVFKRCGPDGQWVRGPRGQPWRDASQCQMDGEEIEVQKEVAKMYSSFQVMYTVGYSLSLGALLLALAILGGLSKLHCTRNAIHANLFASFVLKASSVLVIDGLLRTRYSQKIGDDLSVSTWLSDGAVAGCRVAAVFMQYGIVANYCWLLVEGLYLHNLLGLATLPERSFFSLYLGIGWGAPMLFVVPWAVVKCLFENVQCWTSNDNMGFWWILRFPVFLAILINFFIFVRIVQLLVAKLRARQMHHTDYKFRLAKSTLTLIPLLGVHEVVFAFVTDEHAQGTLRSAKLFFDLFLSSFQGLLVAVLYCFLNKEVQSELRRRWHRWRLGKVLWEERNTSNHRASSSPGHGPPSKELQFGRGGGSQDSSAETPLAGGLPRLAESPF

As for `CCCC[C@H](NC(=O)[C@H](CCC(=O)O)NC(=O)[C@H](CC(=O)O)NC(=O)[C@H](CO)NC(=O)[C@H](Cc1ccccc1)NC(=O)[C@H](CO)NC(=O)CNC(=O)[C@H](CC(=O)O)NC(=O)CNC(=O)[C@@H](N)Cc1cnc[nH]1)C(=O)N[C@H](Cc1ccccc1)C(=O)N[C@H](C(=O)N[C@H](C(=O)N[C@@H](CC(C)C)C(=O)N[C@@H](CC(=O)O)C(=O)N[C@@H](CC(C)C)C(=O)N[C@@H](CC(C)C)C(=O)N[C@@H](C)C(=O)N[C@@H](C)C(=O)N[C@@H](CCCNC(=N)N)C(=O)N[C@@H](CC(=O)O)C(=O)N[C@@H](Cc1ccccc1)C(=O)N[C@H](C(=O)N[C@@H](CC(N)=O)C(=O)N[C@@H](Cc1c[nH]c2ccccc12)C(=O)N[C@@H](CC(C)C)C(=O)N[C@H](C(=O)N[C@@H](CCC(N)=O)C(=O)N[C@H](C(=O)N[C@@H](CCCCN)C(N)=O)[C@@H](C)O)[C@@H](C)CC)[C@@H](C)CC)[C@@H](C)CC)[C@@H](C)O`, the figures for the EC50 in data set [1] and in data set [3] were over 1000 nM and 0.08 nM, respectively. In addition, in data set [2], the fraction unbound at 0.25 h was 0.024.

Regarding `CC[C@H](C)[C@H](NC(=O)[C@H](Cc1ccccc1)NC(=O)[C@H](CC(=O)O)NC(=O)[C@H](CCCN=C(N)N)NC(=O)[C@H](C)NC(=O)[C@H](C)NC(=O)[C@H](CC(C)C)NC(=O)[C@H](CC(N)=O)NC(=O)[C@H](CC(=O)O)NC(=O)[C@H](CC(C)C)NC(=O)[C@@H](NC(=O)[C@@H](NC(=O)[C@H](CC(N)=O)NC(=O)[C@H](CCSC)NC(=O)[C@H](CCC(=O)O)NC(=O)[C@H](CC(=O)O)NC(=O)[C@H](CO)NC(=O)[C@H](Cc1ccccc1)NC(=O)[C@H](CO)NC(=O)CNC(=O)[C@H](CC(=O)O)NC(=O)[C@H](C)NC(=O)[C@@H](N)Cc1cnc[nH]1)[C@@H](C)O)[C@@H](C)CC)C(=O)N[C@@H](CC(N)=O)C(=O)N[C@@H](Cc1c[nH]c2ccccc12)C(=O)N[C@@H](CC(C)C)C(=O)N[C@H](C(=O)N[C@@H](CCC(N)=O)C(=O)N[C@H](C(=O)N[C@@H](CCCCN)C(=O)N[C@H](C(=O)N[C@H](C(=O)N[C@@H](CC(=O)O)C(=O)O)[C@@H](C)O)[C@@H](C)CC)[C@@H](C)O)[C@@H](C)CC`, the midpoint of the response in data set [1], the EC50, lay at 520 nM. The clearance in data set [4] worked out at 25 mL/min/kg. In data set [2], the fraction unbound at 0.25 h is 0.338.

Consider `CCCC[C@H](NC(=O)[C@H](CCC(=O)O)NC(=O)[C@H](CC(=O)O)NC(=O)[C@H](CO)NC(=O)[C@H](Cc1ccccc1)NC(=O)[C@H](CO)NC(=O)CNC(=O)[C@H](CC(=O)O)NC(=O)CNC(=O)[C@@H](N)Cc1cnc[nH]1)C(=O)N[C@H](Cc1ccccc1)C(=O)N[C@H](C(=O)N[C@H](C(=O)N[C@@H](CC(C)C)C(=O)N[C@@H](CC(=O)O)C(=O)N[C@@H](CC(C)C)C(=O)N[C@@H](CC(C)C)C(=O)N[C@@H](C)C(=O)N[C@@H](C)C(=O)N[C@@H](CCCNC(=N)N)C(=O)N[C@@H](CC(=O)O)C(=O)N[C@@H](Cc1ccccc1)C(=O)N[C@H](C(=O)N[C@@H](CC(N)=O)C(=O)N[C@@H](Cc1c[nH]c2ccccc12)C(=O)N[C@@H](CC(C)C)C(=O)N[C@H](C(=O)N[C@@H](CCC(N)=O)C(=O)N[C@H](C(=O)N[C@@H](CCCCN)C(=O)N[C@H](C(=O)N[C@H](C(=O)N[C@@H](CC(=O)O)C(=O)O)[C@@H](C)O)[C@@H](C)CC)[C@@H](C)O)[C@@H](C)CC)[C@@H](C)CC)[C@@H](C)CC)[C@@H](C)O`, for which the half-maximal effective concentration (EC50) in data set [1] was over 1000 nM; in data set [3] it was 0.03 nM. For the same compound, in data set [4], the clearance turned out to be 0.28 mL/min/kg. Besides, the fraction unbound at 0.25 h in data set [2] was 0.005.

Take `CCCCC(NC(=O)[C@H](CCC(=O)O)NC(=O)[C@H](CC(=O)O)NC(=O)[C@H](CO)NC(=O)[C@H](Cc1ccccc1)NC(=O)[C@H](CO)NC(=O)CNC(=O)[C@H](CC(=O)O)NC(=O)CNC(=O)[C@@H](N)Cc1cnc[nH]1)C(=O)N[C@H](Cc1ccccc1)C(=O)N[C@H](C(=O)N[C@H](C(=O)N[C@@H](CC(C)C)C(=O)N[C@@H](CC(=O)O)C(=O)N[C@@H](CC(C)C)C(=O)N[C@@H](CC(C)C)C(=O)N[C@@H](C)C(=O)N[C@@H](C)C(=O)N[C@@H](CCCNC(=N)N)C(=O)N[C@@H](CC(=O)O)C(=O)N[C@@H](Cc1ccccc1)C(=O)N[C@H](C(=O)N[C@@H](CC(N)=O)C(=O)N[C@@H](Cc1c[nH]c2ccccc12)C(=O)N[C@@H](CC(C)C)C(=O)N[C@H](C(=O)N[C@@H](CCC(N)=O)C(=O)N[C@H](C(=O)N[C@@H](CCCCN)C(=O)N[C@H](C(=O)N[C@H](C(=O)N[C@@H](CC(=O)O)C(=O)NCC(C)C)[C@@H](C)O)[C@@H](C)CC)[C@@H](C)O)[C@@H](C)CC)[C@@H](C)CC)[C@@H](C)CC)[C@@H](C)O` (stereo partly drawn): the EC50 was over 1000 nM in data set [1] and 0.06 nM in data set [3]. Besides, in the data set with HEK293, the Ratio EC50 is over 16000. The compound also yielded a clearance in data set [4] of 0.17 mL/min/kg. Also, the fraction unbound at 0.25 h in data set [2] was 0.016.

Regarding `CCCCC(NC(=O)[C@H](CCC(=O)O)NC(=O)[C@H](CC(=O)O)NC(=O)[C@H](CO)NC(=O)[C@H](Cc1ccccc1)NC(=O)[C@H](CO)NC(=O)CNC(=O)[C@H](CC(=O)O)NC(=O)CNC(=O)[C@@H](N)Cc1cnc[nH]1)C(=O)N[C@@H](CC(N)=O)C(=O)N[C@H](C(=O)N[C@H](C(=O)N[C@@H](CC(C)C)C(=O)N[C@@H](CC(=O)O)C(=O)N[C@@H](Cc1cnc[nH]1)C(=O)N[C@@H](CC(C)C)C(=O)N[C@@H](C)C(=O)N[C@@H](C)C(=O)N[C@@H](CCCNC(=N)N)C(=O)N[C@@H](CC(=O)O)C(=O)N[C@@H](Cc1ccccc1)C(=O)N[C@H](C(=O)N[C@@H](CC(N)=O)C(=O)N[C@@H](Cc1c[nH]c2ccccc12)C(=O)N[C@@H](CC(C)C)C(=O)N[C@H](C(=O)N[C@@H](CCC(N)=O)C(=O)N[C@H](C(=O)N[C@@H](CCCCN)C(N)=O)[C@@H](C)O)[C@@H](C)CC)[C@@H](C)CC)[C@@H](C)CC)[C@@H](C)O` (stereo partly drawn) (H-HGDGSFSDE[ξNle]NTILDHLAARDFINWLIQTK-NH2), the concentration giving a half-maximal response (EC50) was over 1000 nM in data set [1] and 0.42 nM in data set [3]. For the same compound, the Ratio EC50 in the data set on HEK293 was over 2300. In data set [4], this compound registered a clearance of 0.13 mL/min/kg. Also, the outcome in data set [5] was inactive.

As to `CCCC[C@H](NC(=O)[C@H](CCC(=O)O)NC(=O)[C@H](CC(=O)O)NC(=O)[C@H](CO)NC(=O)[C@H](Cc1ccccc1)NC(=O)[C@H](CO)NC(=O)CNC(=O)[C@H](CC(=O)O)NC(=O)CNC(=O)[C@@H](N)Cc1cnc[nH]1)C(=O)N[C@H](Cc1ccccc1)C(=O)N[C@H](C(=O)N[C@H](C(=O)N[C@@H](CC(C)C)C(=O)N[C@@H](CC(=O)O)C(=O)N[C@@H](CC(N)=O)C(=O)N[C@@H](CC(C)C)C(=O)N[C@@H](C)C(=O)N[C@@H](C)C(=O)N[C@@H](CCCNC(=N)N)C(=O)N[C@@H](CC(=O)O)C(=O)N[C@@H](Cc1ccccc1)C(=O)N[C@H](C(=O)N[C@@H](CC(N)=O)C(=O)N[C@@H](Cc1c[nH]c2ccccc12)C(=O)N[C@@H](CC(C)C)C(=O)N[C@H](C(=O)N[C@@H](CCC(N)=O)C(=O)N[C@H](C(=O)N[C@@H](CCCCN)C(N)=O)[C@@H](C)O)[C@@H](C)CC)[C@@H](C)CC)[C@@H](C)CC)[C@@H](C)O`, the 50% effective concentration (EC50) is 120 nM in data set [1] and 0.09 nM in data set [3]. In addition, the fraction unbound at 0.25 h in data set [2] was 0.039.

As to `CCCCC(NC(=O)[C@H](CCC(=O)O)NC(=O)[C@H](CC(=O)O)NC(=O)[C@H](CO)NC(=O)[C@H](Cc1ccccc1)NC(=O)[C@H](CO)NC(=O)CNC(=O)[C@H](CC(=O)O)NC(=O)CNC(=O)[C@@H](N)Cc1cnc[nH]1)C(=O)N[C@@H](CC(N)=O)C(=O)N[C@H](C(=O)N[C@H](C(=O)N[C@@H](CC(C)C)C(=O)N[C@@H](CC(=O)O)C(=O)N[C@@H](Cc1c[nH]c2ccccc12)C(=O)N[C@@H](CC(C)C)C(=O)N[C@@H](C)C(=O)N[C@@H](C)C(=O)N[C@@H](CCCNC(=N)N)C(=O)N[C@@H](CC(=O)O)C(=O)N[C@@H](Cc1ccccc1)C(=O)N[C@H](C(=O)N[C@@H](CC(N)=O)C(=O)N[C@@H](Cc1c[nH]c2ccccc12)C(=O)N[C@@H](CC(C)C)C(=O)N[C@H](C(=O)N[C@@H](CCC(N)=O)C(=O)N[C@H](C(=O)N[C@@H](CCCCN)C(N)=O)[C@@H](C)O)[C@@H](C)CC)[C@@H](C)CC)[C@@H](C)CC)[C@@H](C)O` (stereo partly drawn) (H-HGDGSFSDE[ξNle]NTILDWLAARDFINWLIQTK-NH2), the EC50 in data set [1] is over 1000 nM; in data set [3], 0.15 nM. For the same compound, the Ratio EC50 with HEK293 is over 6600. This compound also returned a clearance in data set [4] of 0.5 mL/min/kg. Besides, in data set [5], the result was inactive.
